From US12077503B2, “Substituted cyclic amides and their use as herbicides” (FMC CORPORATION, priority 2015, dated 2024)

Key:
Assay type in all cases: in vivo
[1] = tested on: rice (Oryra sativa); assay: Test B flooded paddy test; conditions: Flood, 0 to 100 scale where 0 is no effect and 100 is complete control, 13 to 15 d
In short: (§1)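 Percent control, visually estimated after 13–15 d in the greenhouse on a 0–100 basis, compares treated pots with untreated ones; compound was put into paddy water 3 cm above the soil when plants had two leaves.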

[2] = tested on: sedge, umbrella (small-flower umbrella sedge, Cyperus difformis); assay: Test B flooded paddy test; conditions: Flood, 0 to 100 scale where 0 is no effect and 100 is complete control, 13 to 15 d
In short: as §1

[3] = tested on: ducksalad (Heteranthera limosa); assay: Test B flooded paddy test; conditions: Flood, 0 to 100 scale where 0 is no effect and 100 is complete control, 13 to 15 d
In short: as §1

[4] = tested on: barnyardgrass (Echinochloa crus-galli); assay: Test B flooded paddy test; conditions: Flood, 0 to 100 scale where 0 is no effect and 100 is complete control, 13 to 15 d
In short: as §1

[5] = tested on: giant foxtail (Setaria faberii); assay: Test A postemergence
In short: (§2)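 Preemergence soil spray on seeded pots or post-emergence spray on 1–2 leaf plants, in loam–sand blend. Greenhouse ~10 d. Visual rating 0–100 against untreated plants.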

[6] = tested on: wheat (Triticum aestivum); assay: Test A postemergence
In short: as §2

[7] = tested on: barnyardgrass (Echinochloa crus-galli); assay: Test A postemergence
In short: as §2

[8] = tested on: ragweed (common ragweed, Ambrosia elatior); assay: Test A postemergence
In short: as §2

[9] = tested on: ryegrass, Italian (Italian ryegrass, Lolium multiflorum); assay: Test A postemergence
In short: as §2

[10] = tested on: Galium (catchweed bedstraw, Galium aparine); assay: Test A postemergence
In short: as §2

[11] = tested on: corn (Zea mays); assay: Test A postemergence
In short: as §2

[12] = tested on: pigweed (Amaranthus retroflexus); assay: Test A postemergence
In short: as §2

[13] = tested on: blackgrass (Alopecurus myosuroides); assay: Test A postemergence
In short: as §2

[14] = tested on: Kochia (Kochia scoparia); assay: Test A postemergence
In short: as §2

[15] = tested on: giant foxtail (Setaria faberii); assay: Test A preemergence; conditions: for Foxtail, Giant plant response rating (0 to 100 scale, 0 is no effect, 100 is complete control): visual injury approx. 10 d
In short: as §2

[16] = tested on: barnyardgrass (Echinochloa crus-galli); assay: Test A preemergence; conditions: for Barnyardgrass plant response rating (0 to 100 scale, 0 is no effect, 100 is complete control): visual injury approx. 10 d
In short: as §2

[17] = tested on: ragweed (common ragweed, Ambrosia elatior); assay: Test A preemergence; conditions: for Ragweed plant response rating (0 to 100 scale, 0 is no effect, 100 is complete control): visual injury approx. 10 d
In short: as §2

[18] = tested on: ryegrass, Italian (Italian ryegrass, Lolium multiflorum); assay: Test A preemergence; conditions: for Ryegrass, Italian plant response rating (0 to 100 scale, 0 is no effect, 100 is complete control): visual injury approx. 10 d
In short: as §2

[19] = tested on: pigweed (Amaranthus retroflexus); assay: Test A preemergence; conditions: for Pigweed plant response rating (0 to 100 scale, 0 is no effect, 100 is complete control): visual injury approx. 10 d
[20] = tested on: Kochia (Kochia scoparia); assay: Test A preemergence; conditions: for Kochia plant response rating (0 to 100 scale, 0 is no effect, 100 is complete control): visual injury approx. 10 d
In short: as §2

[21] = 125 g ai/ha, postemergence, visual rating after approx. 10 d, 0 to 100 scale (0 no effect, 100 complete control)
[22] = Postemergence, 500 g ai/ha, 0 to 100 scale where 0 is no effect and 100 is complete control
[23] = 125 g ai/ha, Preemergence, visual injury after approximately 10 d, 0 to 100 scale where 0 is no effect and 100 is complete control
[24] = 500 g ai/ha, preemergence, 0 to 100 scale, 0 = no effect, 100 = complete control
[25] = 500 g ai/ha, postemergence, visual injury, 0 to 100 scale (0 no effect, 100 complete control), approx. 10 d

Row | Compound | Plant response rating, Rice ([1]; 250 g ai/ha) | Plant response rating, Foxtail, Giant [5, 21] | Plant response rating, Wheat [6, 21] | Plant response rating, Barnyardgrass [7, 21] | Plant response rating, Barnyardgrass [7, 22] | Plant response rating, Ragweed [8, 21] | Plant response rating, Ryegrass, Italian [9, 21] | Plant response rating, Galium [10, 21] | Plant response rating, Corn [11, 21] | Plant response rating, Corn [11, 22] | Plant response rating, Pigweed [12, 21] | Plant response rating, Blackgrass [13, 21] | Plant response rating, Blackgrass [13, 22] | Plant response rating, Kochia [14, 21] | Plant response rating, Foxtail, Giant [15, 23] | Plant response rating, Barnyardgrass [16, 23] | Plant response rating, Ragweed [17, 23] | Plant response rating, Ryegrass, Italian [18, 23] | Plant response rating, Pigweed [19, 23] | Plant response rating, Kochia [20, 23] | also measured
1 | O=C1NCC(c2cc(C(F)(F)F)ccc2F)C1C(=O)Nc1ccc(F)cc1F (stereo not drawn) [Compound 595] | 20 | 90 | 30 | 90 | 90 | 0 | 20 | 0 | 30 | 60 | 20 | 20 | 40 | 0 | 90 | 90 | 0 | 20 | 30 | 40 | Plant response rating, Sedge, Umbrella ([2]; 250 g ai/ha): 70; Plant response rating, Ducksalad ([3]; 250 g ai/ha): 80; Plant response rating, Barnyardgrass ([4]; 250 g ai/ha): 50; Plant response rating, Foxtail, Giant [5, 22]: 90; Plant response rating, Wheat [6, 22]: 50; Plant response rating, Ragweed [8, 22]: 0; Plant response rating, Ryegrass, Italian [9, 22]: 40; Plant response rating, Galium [10, 22]: 20; Plant response rating, Pigweed [12, 22]: 30; Plant response rating, Kochia [14, 22]: 30; Foxtail, Giant plant response rating (0 to 100 scale, 0 is no effect, 100 is complete control) ([15]; Preemergence, 500 g ai/ha): 90; Barnyardgrass plant response rating (0 to 100 scale, 0 is no effect, 100 is complete control) ([16]; Preemergence, 500 g ai/ha): 90; Ragweed plant response rating (0 to 100 scale, 0 is no effect, 100 is complete control) ([17]; Preemergence, 500 g ai/ha): 30; Ryegrass, Italian plant response rating (0 to 100 scale, 0 is no effect, 100 is complete control) ([18]; Preemergence, 500 g ai/ha): 40; Pigweed plant response rating (0 to 100 scale, 0 is no effect, 100 is complete control) ([19]; Preemergence, 500 g ai/ha): 30; Kochia plant response rating (0 to 100 scale, 0 is no effect, 100 is complete control) ([20]; Preemergence, 500 g ai/ha): 50
2 | O=C1NCC(c2ccsc2Br)C1C(=O)Nc1ccccc1F (stereo not drawn) [Compound 597] | 0 | 0 | 0 | 0 | 30 | 0 | 0 | 0 | 0 | 20 | 0 | 0 | 20 | 0 | 20 | 20 | 0 | 0 | 0 | 0 | Plant response rating, Sedge, Umbrella ([2]; 250 g ai/ha): 0; Plant response rating, Ducksalad ([3]; 250 g ai/ha): 50; Plant response rating, Barnyardgrass ([4]; 250 g ai/ha): 0; Plant response rating, Foxtail, Giant [5, 22]: 30; Plant response rating, Wheat [6, 22]: 20; Plant response rating, Ragweed [8, 22]: 0; Plant response rating, Ryegrass, Italian [9, 22]: 0; Plant response rating, Galium [10, 22]: 20; Plant response rating, Pigweed [12, 22]: 0; Plant response rating, Kochia [14, 22]: 0; Foxtail, Giant plant response rating (0 to 100 scale, 0 is no effect, 100 is complete control) ([15]; Preemergence, 500 g ai/ha): 80; Barnyardgrass plant response rating (0 to 100 scale, 0 is no effect, 100 is complete control) ([16]; Preemergence, 500 g ai/ha): 70; Ragweed plant response rating (0 to 100 scale, 0 is no effect, 100 is complete control) ([17]; Preemergence, 500 g ai/ha): 0; Ryegrass, Italian plant response rating (0 to 100 scale, 0 is no effect, 100 is complete control) ([18]; Preemergence, 500 g ai/ha): 0; Pigweed plant response rating (0 to 100 scale, 0 is no effect, 100 is complete control) ([19]; Preemergence, 500 g ai/ha): 0; Kochia plant response rating (0 to 100 scale, 0 is no effect, 100 is complete control) ([20]; Preemergence, 500 g ai/ha): 20
3 | O=C1NCC(c2cc(F)c(F)cc2F)C1C(=O)Nc1ccc(F)c(F)c1F (stereo not drawn) [Compound 614] | 10 | 80 | 0 | 80 | 90 | 0 | 0 | 30 | 0 | 20 | 0 | 30 | 70 | 0 | 90 | 50 | 0 | 0 | 0 | 0 | Plant response rating, Sedge, Umbrella ([2]; 250 g ai/ha): 0; Plant response rating, Ducksalad ([3]; 250 g ai/ha): 100; Plant response rating, Barnyardgrass ([4]; 250 g ai/ha): 65; Plant response rating, Foxtail, Giant [5, 22]: 90; Plant response rating, Wheat [6, 22]: 40; Plant response rating, Ragweed [8, 22]: 0; Plant response rating, Ryegrass, Italian [9, 22]: 20; Plant response rating, Galium [10, 22]: 40; Plant response rating, Pigweed [12, 22]: 30; Plant response rating, Kochia [14, 22]: 50; Plant response rating, Foxtail, Giant [15, 24]: 90; Plant response rating, Barnyardgrass [16, 24]: 90; Plant response rating, Ragweed [17, 24]: 0; Plant response rating, Ryegrass, Italian [18, 24]: 20; Plant response rating, Pigweed [19, 24]: 0; Plant response rating, Kochia [20, 24]: 20
4 | CN1CC(c2ccc(C(F)(F)F)cc2)C(C(=O)Nc2ccc(F)cc2F)C1=O (stereo not drawn) [Compound 625] | 0 | 90 | 0 | 80 | 90 | 0 | 20 | 30 | 10 | 50 | 20 | 30 | 40 | 30 | 90 | 80 | 20 | 30 | 50 | 50 | Plant response rating, Sedge, Umbrella ([2]; 250 g ai/ha): 0; Plant response rating, Ducksalad ([3]; 250 g ai/ha): 100; Plant response rating, Barnyardgrass ([4]; 250 g ai/ha): 40; Plant response rating, Foxtail, Giant [5, 22]: 90; Plant response rating, Wheat [6, 22]: 50; Plant response rating, Ragweed [8, 22]: 20; Plant response rating, Ryegrass, Italian [9, 22]: 30; Plant response rating, Galium [10, 22]: 60; Plant response rating, Pigweed [12, 22]: 50; Plant response rating, Kochia [14, 22]: 50; Plant response rating, Foxtail, Giant [15, 24]: 90; Plant response rating, Barnyardgrass [16, 24]: 90; Plant response rating, Ragweed [17, 24]: 60; Plant response rating, Ryegrass, Italian [18, 24]: 50; Plant response rating, Pigweed [19, 24]: 90; Plant response rating, Kochia [20, 24]: 80
5 | NS(=O)(=O)c1ccccc1NC(=O)C1C(=O)NCC1c1cccc(C(F)(F)F)c1 (stereo not drawn) [Compound 634] |  | 50 | 0 | 40 | 80 | 0 | 0 | 30 | 0 | 0 | 0 | 0 | 0 | 0 | 60 | 20 | 0 | 0 | 0 | 0 | Plant response rating, Rice ([1]; 500 g ai/ha): 15; Plant response rating, Sedge, Umbrella ([2]; 500 g ai/ha): 0; Plant response rating, Ducksalad ([3]; 500 g ai/ha): 40; Plant response rating, Barnyardgrass ([4]; 500 g ai/ha): 20; Plant response rating, Foxtail, Giant [5, 25]: 80; Plant response rating, Wheat [6, 25]: 0; Plant response rating, Ragweed [8, 25]: 0; Plant response rating, Ryegrass, Italian [9, 25]: 20; Plant response rating, Galium [10, 25]: 60; Plant response rating, Pigweed [12, 25]: 0; Plant response rating, Kochia [14, 25]: 0; Plant response rating, Foxtail, Giant [15, 24]: 80; Plant response rating, Barnyardgrass [16, 24]: 70; Plant response rating, Ragweed [17, 24]: 0; Plant response rating, Ryegrass, Italian [18, 24]: 0; Plant response rating, Pigweed [19, 24]: 30; Plant response rating, Kochia [20, 24]: 0
